Laboratory results taken from article PMC12838157, “A Multikinase Inhibitor AX-0085 Blocks FGFR1 Activation to Overcomes Osimertinib Resistance in Non-Small Cell Lung Cancer” (Biomedicines, 2025).

Legend:
[1] = target: T1, AXL (Homo sapiens, UniProt P30530); experiment: kinase assay IC50 (called cell-based kinase assay in the Figure […] legend); also reduced phospho-AXL in HCC827-osi cells
T1 sequence (P30530 26-894): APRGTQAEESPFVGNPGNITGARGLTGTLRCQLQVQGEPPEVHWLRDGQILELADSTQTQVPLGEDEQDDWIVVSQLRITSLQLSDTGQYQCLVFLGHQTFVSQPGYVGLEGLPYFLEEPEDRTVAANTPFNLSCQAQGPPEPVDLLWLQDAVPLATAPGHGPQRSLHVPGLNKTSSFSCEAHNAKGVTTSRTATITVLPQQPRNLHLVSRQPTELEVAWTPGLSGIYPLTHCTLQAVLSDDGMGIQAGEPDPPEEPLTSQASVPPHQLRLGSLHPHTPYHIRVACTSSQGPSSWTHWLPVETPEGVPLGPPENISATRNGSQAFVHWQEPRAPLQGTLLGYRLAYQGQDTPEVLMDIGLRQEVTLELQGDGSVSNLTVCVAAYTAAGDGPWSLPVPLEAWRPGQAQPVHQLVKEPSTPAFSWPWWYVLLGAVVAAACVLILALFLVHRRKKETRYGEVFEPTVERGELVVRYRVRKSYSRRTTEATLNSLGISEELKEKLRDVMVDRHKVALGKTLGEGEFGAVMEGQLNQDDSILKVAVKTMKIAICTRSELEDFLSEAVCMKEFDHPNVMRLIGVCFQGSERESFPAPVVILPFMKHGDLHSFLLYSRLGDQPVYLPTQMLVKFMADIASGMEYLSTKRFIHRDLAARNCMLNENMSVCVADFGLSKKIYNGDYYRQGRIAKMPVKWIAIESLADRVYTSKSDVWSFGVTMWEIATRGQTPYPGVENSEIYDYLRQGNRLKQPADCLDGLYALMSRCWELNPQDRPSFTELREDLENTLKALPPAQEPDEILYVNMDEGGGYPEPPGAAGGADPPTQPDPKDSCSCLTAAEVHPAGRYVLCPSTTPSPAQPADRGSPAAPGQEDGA

[2] = target: FGFR1 (fibroblast growth factor receptor 1) (Homo sapiens, UniProt P11362); experiment: kinase assay IC50 (called cell-based kinase assay in the Figure […] legend); also reduced phospho-FGFR1 in HCC827-osi cells
Sequence of FGFR1 (fibroblast growth factor receptor 1) (P11362 22-822): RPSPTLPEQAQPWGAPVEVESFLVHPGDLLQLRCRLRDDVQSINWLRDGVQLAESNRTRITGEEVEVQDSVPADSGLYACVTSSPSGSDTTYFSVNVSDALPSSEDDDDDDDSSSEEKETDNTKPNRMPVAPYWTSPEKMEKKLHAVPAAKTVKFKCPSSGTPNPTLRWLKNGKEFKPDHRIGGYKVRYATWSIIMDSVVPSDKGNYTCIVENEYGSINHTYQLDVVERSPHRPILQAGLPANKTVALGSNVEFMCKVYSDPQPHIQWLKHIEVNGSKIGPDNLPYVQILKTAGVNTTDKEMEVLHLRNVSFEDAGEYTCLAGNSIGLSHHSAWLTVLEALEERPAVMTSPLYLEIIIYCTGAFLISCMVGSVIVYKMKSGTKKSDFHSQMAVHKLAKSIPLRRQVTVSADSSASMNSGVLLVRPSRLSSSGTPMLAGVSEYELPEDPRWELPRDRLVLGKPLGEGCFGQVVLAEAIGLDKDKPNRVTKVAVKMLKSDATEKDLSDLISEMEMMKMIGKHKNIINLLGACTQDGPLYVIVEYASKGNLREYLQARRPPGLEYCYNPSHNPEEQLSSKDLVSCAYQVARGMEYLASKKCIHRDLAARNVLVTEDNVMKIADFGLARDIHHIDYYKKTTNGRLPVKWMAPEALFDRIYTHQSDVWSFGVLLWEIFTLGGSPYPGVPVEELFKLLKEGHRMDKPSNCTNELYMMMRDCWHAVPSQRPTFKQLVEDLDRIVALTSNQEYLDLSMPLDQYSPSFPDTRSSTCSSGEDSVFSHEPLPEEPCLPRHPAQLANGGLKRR

IC50 [1]: 4.4 nM
IC50 [2]: 2.2 nM
SMILES: CN1C(=O)N(c2cc(NC(=O)c3cccc(C(F)(F)F)c3)cnc2Cl)Cc2cnc(Nc3ccccc3)nc21 [AX-0085]
